Converted amounts (≈) assume the structure as drawn. Positions of bridges follow the written chain, without caps; N, C: chain ends. Non-standard residues stand in square brackets, D forms with d. Residues, ends and D or L forms follow the SMILES beside them. *: point of attachment. Phenylacetyl(3,4-Cl2) = O=C(Cc1ccc(Cl)c(Cl)c1)*; Phenylacetyl(4-Me) = Cc1ccc(CC(=O)*)cc1; Dab = NCC[C@H](N)C(=O)O; Abu = CC[C@H](N)C(=O)O; Dap = NC[C@H](N)C(=O)O; X34 = Cc1ccccc1CC(=O)*; X44 = O=C(c1ccccc1Cl)*; X27 = Cc1ccccc1C(=O)*; X40 = O=C(c1ccccc1F)*
Columns and labels:
Pseudomonas aeruginosa = test system: Pseudomonas aeruginosa
Summary of the method: (§1)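 Lipopeptides, as trifluoroacetate salts, tested for MIC in CAMHB by CLSI broth microdilution, with polymyxin B (sulphate) as comparator.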

Enterobacter cloacae = test system: Enterobacter cloacae
Summary of the method: as §1

Acinetobacter baumannii = test system: Acinetobacter baumannii
Summary of the method: as §1

Row | Structure (SMILES) | Minimum inhibitory concentration, Pa ATCC 27853 (Pseudomonas aeruginosa) | Minimum inhibitory concentration, Pa FADDI-PA022 (Pseudomonas aeruginosa) | Minimum inhibitory concentration, Pa FADDI-PA025 (Pseudomonas aeruginosa) | Minimum inhibitory concentration, Ec FADDI-EC001 (Enterobacter cloacae) | Minimum inhibitory concentration, Ec FADDI-EC003 (Enterobacter cloacae) | Minimum inhibitory concentration, Ec FADDI-EC006 (Enterobacter cloacae) | Minimum inhibitory concentration, Ab A ATCC 17978 (Acinetobacter baumannii) | Minimum inhibitory concentration, Ab ATCC 19606 (Acinetobacter baumannii) | Minimum inhibitory concentration, Ab FADDI-AB034 (Acinetobacter baumannii)
1 | CC[C@@H]1NC(=O)[C@@H](CC(C)C)NC(=O)[C@H](CCN)NC(=O)[C@@H](NC(=O)[C@H](CN)NC(=O)[C@@H](NC(=O)[C@H](CCN)NC(=O)c2ccccc2Cl)[C@@H](C)O)CCNC(=O)[C@H]([C@@H](C)O)NC(=O)[C@H](CCN)NC(=O)[C@H](CCN)NC1=O [Compound 72] (X44-[Dab]T[Dap][Dab][Dab][dL][Abu][Dab][Dab]T; lactam 4-C) | 0.5 µg/mL (≈ 0.444 µM) | 0.5 µg/mL (≈ 0.444 µM) | 4 µg/mL (≈ 3.55 µM) | 0.5 µg/mL (≈ 0.444 µM) | 0.25 µg/mL (≈ 0.222 µM) | 0.5 µg/mL (≈ 0.444 µM) | 4 µg/mL (≈ 3.55 µM) | 8 µg/mL (≈ 7.11 µM) | 4 µg/mL (≈ 3.55 µM)
2 | CC[C@@H]1NC(=O)[C@@H](CC(C)C)NC(=O)[C@H](CCN)NC(=O)[C@@H](NC(=O)[C@H](CN)NC(=O)[C@@H](NC(=O)[C@H](CCN)NC(=O)c2ccccc2F)[C@@H](C)O)CCNC(=O)[C@H]([C@@H](C)O)NC(=O)[C@H](CCN)NC(=O)[C@H](CCN)NC1=O [Compound 73] (X40-[Dab]T[Dap][Dab][Dab][dL][Abu][Dab][Dab]T; lactam 4-C) | 0.5 µg/mL (≈ 0.451 µM) | 1 µg/mL (≈ 0.901 µM) | 4 µg/mL (≈ 3.61 µM) | 0.25 µg/mL (≈ 0.225 µM) | 0.25 µg/mL (≈ 0.225 µM) | 1 µg/mL (≈ 0.901 µM) | 4 µg/mL (≈ 3.61 µM) | 8 µg/mL (≈ 7.21 µM) | 4 µg/mL (≈ 3.61 µM)
3 | CC[C@@H]1NC(=O)[C@@H](CC(C)C)NC(=O)[C@H](CCN)NC(=O)[C@@H](NC(=O)[C@H](CN)NC(=O)[C@@H](NC(=O)[C@H](CCN)NC(=O)c2ccccc2C)[C@@H](C)O)CCNC(=O)[C@H]([C@@H](C)O)NC(=O)[C@H](CCN)NC(=O)[C@H](CCN)NC1=O [Compound 75] (X27-[Dab]T[Dap][Dab][Dab][dL][Abu][Dab][Dab]T; lactam 4-C) | 0.5 µg/mL (≈ 0.452 µM) | 1 µg/mL (≈ 0.905 µM) | 2 µg/mL (≈ 1.81 µM) | 0.25 µg/mL (≈ 0.226 µM) | 0.25 µg/mL (≈ 0.226 µM) | 0.5 µg/mL (≈ 0.452 µM) | 1 µg/mL (≈ 0.905 µM) | 1 µg/mL (≈ 0.905 µM) | 1 µg/mL (≈ 0.905 µM)
4 | CC[C@@H]1NC(=O)[C@@H](CC(C)C)NC(=O)[C@H](CCN)NC(=O)[C@@H](NC(=O)[C@H](CN)NC(=O)[C@@H](NC(=O)[C@H](CCN)NC(=O)Cc2ccccc2C)[C@@H](C)O)CCNC(=O)[C@H]([C@@H](C)O)NC(=O)[C@H](CCN)NC(=O)[C@H](CCN)NC1=O [Compound 76] (X34-[Dab]T[Dap][Dab][Dab][dL][Abu][Dab][Dab]T; lactam 4-C) | 0.5 µg/mL (≈ 0.447 µM) | 1 µg/mL (≈ 0.893 µM) | 4 µg/mL (≈ 3.57 µM) | 0.25 µg/mL (≈ 0.223 µM) | 0.25 µg/mL (≈ 0.223 µM) | 0.5 µg/mL (≈ 0.447 µM) | 1 µg/mL (≈ 0.893 µM) | 2 µg/mL (≈ 1.79 µM) | 1 µg/mL (≈ 0.893 µM)
5 | CC[C@@H]1NC(=O)[C@@H](CC(C)C)NC(=O)[C@H](CCN)NC(=O)[C@@H](NC(=O)[C@H](CN)NC(=O)[C@@H](NC(=O)[C@H](CCN)NC(=O)Cc2ccc(C)cc2)[C@@H](C)O)CCNC(=O)[C@H]([C@@H](C)O)NC(=O)[C@H](CCN)NC(=O)[C@H](CCN)NC1=O [Compound 80] ({Phenylacetyl(4-Me)}-[Dab]T[Dap][Dab][Dab][dL][Abu][Dab][Dab]T; lactam 4-C) | 0.5 µg/mL (≈ 0.447 µM) | 1 µg/mL (≈ 0.893 µM) | 2 µg/mL (≈ 1.79 µM) | <0.125 µg/mL | 0.25 µg/mL (≈ 0.223 µM) | 4 µg/mL (≈ 3.57 µM) | 1 µg/mL (≈ 0.893 µM) | 4 µg/mL (≈ 3.57 µM) | 2 µg/mL (≈ 1.79 µM)
6 | CC[C@@H]1NC(=O)[C@@H](CC(C)C)NC(=O)[C@H](CCN)NC(=O)[C@@H](NC(=O)[C@H](CN)NC(=O)[C@@H](NC(=O)[C@H](CCN)NC(=O)Cc2ccc(Cl)c(Cl)c2)[C@@H](C)O)CCNC(=O)[C@H]([C@@H](C)O)NC(=O)[C@H](CCN)NC(=O)[C@H](CCN)NC1=O [Compound 81] ({Phenylacetyl(3,4-Cl2)}-[Dab]T[Dap][Dab][Dab][dL][Abu][Dab][Dab]T; lactam 4-C) | 2 µg/mL (≈ 1.7 µM) | 4 µg/mL (≈ 3.41 µM) | 1 µg/mL (≈ 0.852 µM) | 0.25 µg/mL (≈ 0.213 µM) | <0.125 µg/mL | 0.25 µg/mL (≈ 0.213 µM) | 0.5 µg/mL (≈ 0.426 µM) | 1 µg/mL (≈ 0.852 µM) | 0.25 µg/mL (≈ 0.213 µM)
